This is an account of results in patent publication US5798365A, “Substituted quinoline derivatives, a process for their preparation, and their use” (Hoechst Aktiengesellschaft, priority 1994, dated 1998).

In brackets after ≈: the same amount, converted by molar mass. Like-named read-outs stand apart in the source and are kept apart here. Bounds are passed on as bounds.

For the assay, the system named is HIV. In words: Testing preparations against HIV in cell culture (infected human donor lymphocytes). Format: cell-based. The settings on record: HIV-infected lymphocytes, 3 days; for MIC: Human immunodeficiency virus 1, 72 h, lowest concentration without giant cells; for IC50: Human immunodeficiency virus 1, Lymphocyte, 72 h, read-out: IC-50. On the procedure: Testing preparations against HIV in cell culture
Description of the method
The complete medium additionally contains 20% foetal calf serum and 40 IU/ml recombinant interleukin 2.
Lymphocytes which have been isolated from fresh donor blood by means of Ficoll® gradient centrifugation are cultured, at 37° C. for 36 h and under 5% CO2, in complete medium in the added presence of […] phytohemagglutinin (Wellcome). After the addition of 10% DMSO, the cells are frozen at a cell density of 5×10^6 and stored in liquid nitrogen. For the experiment, the cells are thawed, washed in RPMI medium and cultured for 3-4 days in complete medium.
The preparations for testing were dissolved in DMSO at a concentration of 16.7 mg/ml and diluted to 1 mg/ml in complete medium. 0.4 ml of medium was initially introduced in 24-well multiwell plates. After 0.1 ml of the dissolved preparation had been added to the upper row of the plate, a geometrical dilution series was produced by transferring 0.1 ml on each occasion. Preparation-free controls always contained 0.4 ml of complete medium containing 0.5% DMSO.
Lymphocyte cultures having a cell count of 5×10^5 cells/ml were infected by adding a 1/50 volume of the supernatant from lymphocyte cultures infected with HIV. The titer of these culture supernatants was determined, by end point dilution, to be 1-5×10^6 infectious units/ml. After incubating at 37° C. for 30 min, the infected lymphocytes were centrifuged off and taken up once again in the same volume of medium. 0.6 ml of this cell suspension was added to each of the wells in the test plate. The assay mixtures were incubated at 37° C. for 3 days.
The infected cell cultures were examined under the microscope for the presence of giant cells, which indicate that the virus is multiplying actively in the culture. The lowest preparation concentration at which no giant cells appeared was defined as the inhibitory concentration against HIV (MIC value). As a control, the presence of HIV antigen in the supernatants from the culture plates was determined using a test for HIV antigen in accordance with the manufacturer's (Organon) instructions.

In the case of `C=C1c2cc(Cl)ccc2NC(=S)C1(C)C` [Compound 1], under “37° C.”, the MIC stood at 1 µg/mL (≈ 4.21 µM) and the IC50 was ≥ 0.04 µg/mL.
The like results for `CCC=C1c2ccccc2NC(=O)C1(CC)CC` [Compound 50] were, in that order, < 0.1 µg/mL and ~0.01 µg/mL (≈ 0.0411 µM).
On to `CCOc1ccc2c(c1)C(=CCC(C)C)C(C)(C)C(=O)N2` [Compound 58], for which, under “37° C.”, the MIC was < 0.1 µg/mL. In addition, the IC50 (unit as printed for compound 58) was ~0.02 µg/mL (≈ 0.0696 µM).
Turning to `C=CC=C1c2cc(Cl)ccc2NC(=O)C1(C)C` [Compound 13], where the note is “37° C.”, the MIC was > 0.2 µg/mL and the IC50 worked out at 0.04 µg/mL (≈ 0.161 µM).
As for `CCCCCC=C1c2cc(Cl)ccc2NC(=S)C1(C)C` [Compound 16], under “37° C.”, the MIC is < 0.2 µg/mL and the IC50 was ~0.03 µg/mL (≈ 0.0974 µM).
The like results for `CCOc1ccc2c(c1)C(=CC(C)C)C(C)(C)C(=S)N2` [Compound 47] were, in that order, < 0.08 µg/mL and ~0.015 µg/mL (≈ 0.0518 µM).
The like results for `CC(C)C=C1c2cc(Cl)ccc2NC(=O)C1(C)C` [Compound 17] were, in that order, < 0.02 µg/mL and ~0.04 µg/mL (≈ 0.152 µM).
Turning to `CCC/C=C1/c2cc(Cl)ccc2NC(=O)C1(C)C` [Compound 74, Z-4-n-butylene-6-chloro-3,4-dihydro-3,3-dimethylquinolin-2(1H)-one], the MIC (37° C.) came out at 0.04 µg/mL (≈ 0.152 µM). The IC50 (unit as printed for compound 74) worked out at 0.02 µg/mL (≈ 0.0758 µM).
Turning to `CC=C1c2ccccc2NC(=S)C12CCCC2` [Compound 38], under “37° C.”, the MIC is < 0.2 µg/mL and the IC50 is ~0.08 µg/mL (≈ 0.329 µM).
As for `CCCCCC=C1c2ccccc2NC(=S)C12CCC2` [Compound 32], where the note is “37° C.”, the MIC was 0.2 µg/mL (≈ 0.701 µM) and the IC50 was ~0.08 µg/mL (≈ 0.28 µM).
The like results for `CCC=C1c2cc(Cl)ccc2NC(=O)C12CCCC2` [Compound 77] were, in that order, 0.2 µg/mL (≈ 0.725 µM) and ~0.03 µg/mL (≈ 0.109 µM).
The like results for `CC1(C)C(=S)Nc2ccc(F)cc2C1=C1CCCC1` [Compound 143] were, in that order, > 0.008 µg/mL and < 0.008 µg/mL.
The like results for `CCCC=C1c2cc(OC)ccc2NC(=O)C1(C)C` [Compound 41, E/Z-4-n-butylene-3,4-dihydro-3,3-dimethyl-6-methoxyquinolin-2(1H)-one] were, in that order, 0.2 µg/mL (≈ 0.771 µM) and ~0.2 µg/mL (≈ 0.771 µM).
On to `CC(C)C=C1c2ccccc2NC(=S)C12CCC2` [Compound 34], for which, where the note is “37° C.”, the MIC is < 0.04 µg/mL and the IC50 is ~0.01 µg/mL (≈ 0.0388 µM).
The like results for `CCCC=C1c2cc(OC(F)(F)F)ccc2NC(=S)C1(C)C` [Compound 36] were, in that order, < 0.2 µg/mL and ~0.01 µg/mL (≈ 0.0304 µM).
The like results for `COc1ccc2c(c1)C(=CC(C)C)C(C)(C)C(=O)N2` [Compound 43] were, in that order, 0.2 µg/mL (≈ 0.771 µM) and 0.05 µg/mL (≈ 0.193 µM).
The like results for `CCCC=C1c2cc(OCC)ccc2NC(=O)C1(C)C` [Compound 54] were, in that order, 0.1 µg/mL (≈ 0.366 µM) and 0.05 µg/mL (≈ 0.183 µM).
For the molecule `C=CC=C1c2ccccc2NC(=S)C1(C)C` [Compound 30], where the note is “37° C.”, the MIC is < 0.2 µg/mL and the IC50 is ~0.02 µg/mL (≈ 0.0872 µM).
The like results for `CCC=C1c2cc(OC)ccc2NC(=O)C1(C)C` [Compound 44] were, in that order, 0.2 µg/mL (≈ 0.815 µM) and 0.06 µg/mL (≈ 0.245 µM).
With `CC/C=C1/c2cc(Cl)ccc2NC(=S)C1(C)C` [Compound 72], where the note is “37° C.”, the MIC was < 0.008 µg/mL.
